Results reported in patent publication US20170355705A1 (GlaxoSmithKline Intellectual Property (No.2) Limited, priority 2014, published 2017).

Target: T1, SIRT1 (Homo sapiens, UniProt Q96EB6)
T1 sequence (Q96EB6 1-747): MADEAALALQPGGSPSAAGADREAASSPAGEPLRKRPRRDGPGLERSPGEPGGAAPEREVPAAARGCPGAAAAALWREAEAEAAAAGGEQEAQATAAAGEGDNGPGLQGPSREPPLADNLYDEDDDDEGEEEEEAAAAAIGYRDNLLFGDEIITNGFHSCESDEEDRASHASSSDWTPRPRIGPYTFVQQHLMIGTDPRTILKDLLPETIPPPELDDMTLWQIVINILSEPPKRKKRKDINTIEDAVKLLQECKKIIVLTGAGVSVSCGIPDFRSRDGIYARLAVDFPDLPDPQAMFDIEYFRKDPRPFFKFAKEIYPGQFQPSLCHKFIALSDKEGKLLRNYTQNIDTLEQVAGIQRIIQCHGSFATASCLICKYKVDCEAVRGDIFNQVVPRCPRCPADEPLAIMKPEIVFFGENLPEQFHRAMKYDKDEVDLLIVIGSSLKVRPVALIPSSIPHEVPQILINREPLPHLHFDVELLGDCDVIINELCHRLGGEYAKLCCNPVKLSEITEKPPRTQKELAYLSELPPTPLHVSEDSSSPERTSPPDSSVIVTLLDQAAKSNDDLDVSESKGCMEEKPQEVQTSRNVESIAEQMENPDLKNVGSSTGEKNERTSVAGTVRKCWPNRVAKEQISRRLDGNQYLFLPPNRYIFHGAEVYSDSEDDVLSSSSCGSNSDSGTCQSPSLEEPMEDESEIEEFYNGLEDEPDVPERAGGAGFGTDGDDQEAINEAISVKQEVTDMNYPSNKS
Test: Trp mass spectrometry assay of SIRT1 activity (EC1.5, percent maximum activation)
Assay type: biochemical
Conditions: Trp mass spectrometry assay; for TRP Activity (EC1.5): EC1.5 = concentration giving 150% activation of SIRT1; for TRP MAX RESP (percent maximum fold activation): percent maximum activation of SIRT1
Source text: Mass spectrometry based assays were used to identify modulators of SIRT1 activity. […] The peptide was labeled with the fluorophore 5TMR (excitation 540 nm/emission 580 nm) at the C-terminus. The sequence of the peptide substrate was based on p53 with several modifications. In addition, the methionine residue naturally present in the sequence was replaced with the norleucine because the methionine may be susceptible to oxidation during synthesis and purification.
The Trp mass spectrometry assay was conducted as follows. […] The SIRT1 protein was obtained by cloning the SirT1 gene into a T7-promoter containing vector, which was then expressed in BL21(DE3) bacterial cells and purified as described in further detail below. Test compound was added at varying concentrations to this reaction mixture and the resulting reactions were monitored. After the 25 minute incubation with SIRT1, 10 μL of 10% formic acid was added to stop the reaction. The resulting reactions were sealed and frozen for later mass spec analysis. The relative SIRT1 activity was then determined by measuring the amount of O-acetyl-ADP-ribose (OAADPR) formed (or, alternatively, the amount of deacetylated Trp peptide generated) by the NAD-dependent sirtuin deacetylation reaction in the presence of varying concentrations of the test compound versus control reactions lacking the test compound. The degree to which the test agent activated deacetylation by SIRT1 was expressed as EC1.5 (i.e., the concentration of compound required to increase SIRT1 activity by 50% over the control lacking test compound), and Percent Maximum Activation (i.e., the maximum activity relative to control (100%) obtained for the test compound).
This time point was the same as that used for test compounds and, within the linear range, the endpoint represents a change in velocity.
For the above assay, SIRT1 protein was expressed and purified as follows. The SirT1 gene was cloned into a T7-promoter containing vector and transformed into BL21(DE3). The protein was expressed by induction with 1 mM IPTG as an N-terminal His-tag fusion protein at 18° C. overnight and harvested at 30,000×g. Cells were lysed with lysozyme in lysis buffer (50 mM Tris-HCl, 2 mM Tris[2-carboxyethyl]phosphine (TCEP), 10 μM ZnCl2, 200 mM NaCl) and further treated with sonication for 10 min for complete lysis. The protein was purified over a Ni-NTA column (Amersham) and fractions containing pure protein were pooled, concentrated and run over a sizing column (Sephadex S200 26/60 global). The peak containing soluble protein was collected and run on an Ion-exchange column (MonoQ). Gradient elution (200 mM-500 mM NaCl) yielded pure protein. This protein was concentrated and dialyzed against dialysis buffer (20 mM Tris-HCl, 2 mM TCEP) overnight. The protein was aliquoted and frozen at −80° C. until further use.
“NT” means not tested; “ND” means not determinable.

Row | TRP Activity (EC1.5) | TRP MAX RESP (percent maximum fold activation) | Compound
1 | B (EC1.5 1-25 μM) | A (Fold activation ≧150%) | Cc1ccc(-c2cc(C)c3c(n2)N(C(=O)Nc2ccccn2)[C@H]2CCN3C2)cn1 [Example 9, (4S)-9-methyl-7-(6-methylpyridin-3-yl)-N-(pyridin-2-yl)-3,4-dihydro-1,4-methanopyrido[2,3-b][1,4]diazepine-5(2H)-carboxamide]
2 | B (EC1.5 1-25 μM) | A (Fold activation ≧150%) | Cc1ccc(-c2nc3c(cc2C#N)N2CC[C@@H](C2)N3C(=O)Nc2cccnc2)cn1 [Example 10, (4S)-8-cyano-7-(6-methylpyridin-3-yl)-N-(pyridin-3-yl)-3,4-dihydro-1,4-methanopyrido[2,3-b][1,4]diazepine-5(2H)-carboxamide]
3 | B (EC1.5 1-25 μM) | A (Fold activation ≧150%) | Cc1cc(-c2nc3c(cc2Br)N2CC[C@@H](C2)N3C(=O)Nc2ccccn2)ccn1 [Example 11, (4S)-8-bromo-7-(2-methylpyridin-4-yl)-N-(pyridin-2-yl)-3,4-dihydro-1,4-methanopyrido[2,3-b][1,4]diazepine-5(2H)-carboxamide]
4 | B (EC1.5 1-25 μM) | A (Fold activation ≧150%) | Cc1cc(-c2nc3c(cc2Br)N2CC[C@@H](C2)N3C(=O)Nc2cccnc2)ccn1 [Example 12, (4S)-8-bromo-7-(2-methylpyridin-4-yl)-N-(pyridin-3-yl)-3,4-dihydro-1,4-methanopyrido[2,3-b][1,4]diazepine-5(2H)-carboxamide]
5 | B (EC1.5 1-25 μM) | A (Fold activation ≧150%) | Cc1cc(-c2nc3c(cc2F)N2CC[C@@H](C2)N3C(=O)Nc2cccnc2)ccn1 [Example 14, (4S)-8-fluoro-7-(2-methylpyridin-4-yl)-N-(pyridin-3-yl)-3,4-dihydro-1,4-methanopyrido[2,3-b][1,4]diazepine-5(2H)-carboxamide]
6 | A (EC1.5<1 μM) | A (Fold activation ≧150%) | Cc1cc(-c2nc3c(cc2F)N2CC[C@@H](C2)N3C(=O)Nc2ccccn2)ccn1 [Example 15, (4S)-8-fluoro-7-(2-methylpyridin-4-yl)-N-(pyridin-2-yl)-3,4-dihydro-1,4-methanopyrido[2,3-b][1,4]diazepine-5(2H)-carboxamide]
7 | B (EC1.5 1-25 μM) | A (Fold activation ≧150%) | Cc1cc(-c2nc3c(cc2C)N2CC[C@@H](C2)N3C(=O)Nc2cccnc2)ccn1 [Example 17, (4S)-8-methyl-7-(2-methylpyridin-4-yl)-N-(pyridin-3-yl)-3,4-dihydro-1,4-methano pyrido[2,3-b][1,4]diazepine-5(2H)-carboxamide]
8 | B (EC1.5 1-25 μM) | A (Fold activation ≧150%) | O=C(Nc1ccnc(O[C@@H]2CCOC2)n1)N1c2nc(-c3cccc(C(F)(F)F)c3)c(Cl)cc2N2CC[C@H]1C2 [Example 18, (4S)-8-chloro-N-(2-(((R)-tetrahydrofuran-3-yl)oxy)pyrimidin-4-yl)-7-(3-(trifluoromethyl)phenyl)-3,4-dihydro-1,4-methanopyrido[2,3-b][1,4]diazepine-5(2H)-carboxamide]
9 | A (EC1.5<1 μM) | A (Fold activation ≧150%) | O=C(Nc1ccnc(O[C@H]2CCOC2)n1)N1c2nc(-c3cccc(C(F)(F)F)c3)c(Cl)cc2N2CC[C@H]1C2 [Example 19, (4S)-8-chloro-N-(2-(((S)-tetrahydrofuran-3-yl)oxy)pyrimidin-4-yl)-7-(3-(trifluoromethyl)phenyl)-3,4-dihydro-1,4-methanopyrido[2,3-b][1,4]diazepine-5(2H)-carboxamide]
10 | C (EC1.5>25 μM) | A (Fold activation ≧150%) | Cc1cc(-c2nc3c(cc2Cl)N2CC[C@@H](C2)N3C(=O)Nc2ccnc(O[C@H]3CCOC3)n2)ccn1 [Example 20, (4S)-8-chloro-7-(2-methylpyridin-4-yl)-N-(2-(((S)-tetrahydrofuran-3-yl)oxy)pyrimidin-4-yl)-3,4-dihydro-1,4-methanopyrido[2,3-b][1,4]diazepine-5(2H)-carboxamide]
11 | C (EC1.5>25 μM) | B (Fold Activation <150%) | Cc1cc(-c2nc3c(cc2Cl)N2CC[C@@H](C2)N3C(=O)Nc2ccnc(OC3CCOCC3)n2)ccn1 [Example 21, (4S)-8-chloro-7-(2-methylpyridin-4-yl)-N-(2-((tetrahydro-2H-pyran-4-yl)oxy)pyrimidin-4-yl)-3,4-dihydro-1,4-methanopyrido[2,3-b][1,4]diazepine-5(2H)-carboxamide]
12 | C (EC1.5>25 μM) | B (Fold Activation <150%) | Cc1cc(-c2nc3c(cc2Cl)N2CC[C@@H](C2)N3C(=O)Nc2ccnc(O[C@@H]3CCOC3)n2)ccn1 [Example 22, (4S)-8-chloro-7-(2-methylpyridin-4-yl)-N-(2-(((R)-tetrahydrofuran-3-yl)oxy)pyrimidin-4-yl)-3,4-dihydro-1,4-methanopyrido[2,3-b][1,4]diazepine-5(2H)-carboxamide]
13 | A (EC1.5<1 μM) | A (Fold activation ≧150%) | O=C(Nc1cncc(OC[C@H](O)CO)c1)N1c2nc(-c3cccc(C(F)(F)F)c3)c(Cl)cc2N2CC[C@H]1C2 [Example 23, (4S)-8-chloro-N-(5-((R)-2,3-dihydroxypropoxy)pyridin-3-yl)-7-(3-(trifluoromethyl)phenyl)-3,4-dihydro-1,4-methanopyrido[2,3-b][1,4]diazepine-5(2H)-carboxamide]
14 | B (EC1.5 1-25 μM) | A (Fold activation ≧150%) | O=C(Nc1cc(OC[C@H](O)CO)ncn1)N1c2nc(-c3cccc(C(F)(F)F)c3)c(Cl)cc2N2CC[C@H]1C2 [Example 24, (4S)-8-chloro-N-(6-((R)-2,3-dihydroxypropoxy)pyrimidin-4-yl)-7-(3-(trifluoromethyl)phenyl)-3,4-dihydro-1,4-methanopyrido[2,3-b][1,4]diazepine-5(2H)-carboxamide]

Row | Compound | TRP Activity (EC1.5) | TRP MAX RESP (percent maximum fold activation)
15 | Cc1ccc(-c2cc(C)c3c(n2)N(C(=O)Nc2cccnc2)[C@H]2CCN3C2)cn1 [Example 13, (4S)-9-methyl-7-(6-methylpyridin-3-yl)-N-(pyridin-3-yl)-3,4-dihydro-1,4-methanopyrido[2,3-b][1,4]diazepine-5(2H)-carboxamide] | B (EC1.5 1-25 μM) | A (Fold activation ≧150%)
16 | Cc1ccc(-c2nc3c(cc2Cl)N2CC[C@@H](C2)N3C(=O)Nc2ccccn2)cn1 [Example 16, (4S)-8-chloro-7-(6-methylpyridin-3-yl)-N-(pyridin-2-yl)-3,4-dihydro-1,4-methanopyrido[2,3-b][1,4]diazepine-5(2H)-carboxamide] | B (EC1.5 1-25 μM) | A (Fold activation ≧150%)
